Measurements published in patent US7897621B2, “2-trifluoromethylnicotinamide derivatives as HDL-cholesterol raising agents” (Hoffmann-La Roche Inc., priority 2008, dated 2011).
pEC50, pIC50: −log10 of the molar value.

How the values were obtained:
cannabinoid CB1 receptor = cannabinoid CB1 receptor (Homo sapiens, UniProt P21554); assay: CB1-receptor binding assay; conditions: determined as described in WO 2006/106054, page 36
Description: The affinity of the compounds of formula I of the present invention towards cannabinoid CB1 receptors was determined as described in WO 2006/106054, page 36.

THP-1 cells = assay: Cholesterol efflux assay; assay type: cell-based; conditions: Homo sapiens; THP-1 cells differentiated to macrophages, [3H]cholesterol loaded, efflux induced by 10 μg/ml Apolipoprotein AI, 6 hrs; percent stimulation over DMSO
Description: The ability of compounds of the invention to stimulate cholesterol efflux is determined in replicate cultures of THP-1 cells in 96-well microplates. Cells are plated at an initial density of 150,000 cells/well and differentiated to macrophages with the addition of PMA (100 ng/ml) for 72 hrs in 10% fetal bovine serum, 3 μI/L of b-mercaptoethanol, RPMI-1640 medium. Cells are washed once with RPMI-1640 and loaded with RPMI-1640 medium containing 2% FCS, 50 μg/ml acetylated LDL, and 10 μCi/ml [^3H]cholesterol for 48 hours at 37° C. After loading the cells are washed once with RPMI-1640 and incubated with the compound of interest from DMSO solutions for an additional 24 hrs in RPMI-1640 medium containing 1 mg/ml fatty acid free-bovine serum albumin (BSA). Upon incubation cells are washed once, and cholesterol efflux is induced by the addition of 10 μg/ml Apolipoprotein Al in RPMI-1640 containing 1 mg/ml BSA and in the presence of the compound for an additional 6 hrs. Following incubation radioactivity is determined in the supernatants and cholesterol efflux is expressed as the percent stimulation over replicate cultures treated only with DMSO. Sigmoidal curves were fitted using the XLfit3 program (ID Business Solutions Ltd. UK) and EC50 values were determined.

Chain of cannabinoid CB1 receptor (P21554 whole entry): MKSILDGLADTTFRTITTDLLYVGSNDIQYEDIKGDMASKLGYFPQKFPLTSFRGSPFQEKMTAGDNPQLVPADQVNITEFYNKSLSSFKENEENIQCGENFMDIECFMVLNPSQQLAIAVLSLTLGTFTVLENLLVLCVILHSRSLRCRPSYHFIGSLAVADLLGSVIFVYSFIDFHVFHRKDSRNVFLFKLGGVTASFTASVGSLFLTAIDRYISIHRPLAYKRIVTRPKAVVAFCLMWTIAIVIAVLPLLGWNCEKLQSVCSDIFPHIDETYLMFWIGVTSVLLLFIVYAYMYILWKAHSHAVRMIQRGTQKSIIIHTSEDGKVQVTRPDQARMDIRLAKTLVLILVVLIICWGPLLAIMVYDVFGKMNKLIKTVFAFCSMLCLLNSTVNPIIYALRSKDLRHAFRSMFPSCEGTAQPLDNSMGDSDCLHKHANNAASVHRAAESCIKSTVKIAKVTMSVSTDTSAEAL

| Structure (SMILES) | pIC50 (cannabinoid CB1 receptor) | pEC50 (THP-1 cells) |
| --- | --- | --- |
| CC(O)(CNC(=O)c1cc(-c2ccc(Cl)c(Cl)c2)c(OCC(F)(F)F)nc1C(F)(F)F)C1CC1 (stereo not shown) [Example 2, N-(2-cyclopropyl-2-hydroxy-propyl)-5-(3,4-dichloro-phenyl)-6-(2,2,2-trifluoro-ethoxy)-2-trifluoromethyl-nicotinamide] | < 5.00 | 5.97 |
| CS(=O)(=O)Nc1ccc(-c2cc(C(=O)N[C@@H]3CCCC[C@H]3O)c(C(F)(F)F)nc2OCC(F)(F)F)cc1 [Example 6, N-((1R,2R)-2-hydroxy-cyclohexyl)-5-(4-methanesulfonylamino-phenyl)-6-(2,2,2-trifluoro-ethoxy)-2-trifluoromethyl-nicotinamide] | < 5.00 | 6.25 |
| O=C(N[C@@H]1CCCC[C@@H]1O)c1cc(-c2ccc(Cl)cc2)c(OCC(F)(F)F)nc1C(F)(F)F [Example 4B, 5-(4-chloro-phenyl)-N-((1R,2S)-2-hydroxy-cyclohexyl)-6-(2,2,2-trifluoro-ethoxy)-2-trifluoromethyl-nicotinamide] | < 5.00 | 5.92 |
| C[C@@](O)(CNC(=O)c1cc(-c2ccc(Cl)c(Cl)c2)c(OCC(F)(F)F)nc1C(F)(F)F)C1CC1 [Example 2B, N-((S)-2-cyclopropyl-2-hydroxy-propyl)-5-(3,4-dichloro-phenyl)-6-(2,2,2-trifluoro-ethoxy)-2-trifluoromethyl-nicotinamide] | < 5.00 | 5.85 |
| O=C(N[C@@H]1CCCC[C@H]1O)c1cc(-c2ccc(Cl)cc2)c(OCC(F)(F)F)nc1C(F)(F)F [Example 4, 5-(4-chloro-phenyl)-N-((1R,2R)-2-hydroxy-cyclohexyl)-6-(2,2,2-trifluoro-ethoxy)-2-trifluoromethyl-nicotinamide] | 5.25 | 6.41 |
| CC(C)CC(CO)NC(=O)c1cc(-c2ccc(NS(C)(=O)=O)cc2)c(OCc2ccccn2)nc1C(F)(F)F (stereo not shown) [Example 5, N-(1-hydroxymethyl-3-methyl-butyl)-5-(4-methanesulfonylamino-phenyl)-6-(pyridin-2-ylmethoxy)-2-trifluoromethyl-nicotinamide] | ~5.00 | 6.05 |
| CC(O)(CNC(=O)c1cc(-c2ccc(Cl)cc2)c(OCC(F)(F)F)nc1C(F)(F)F)C1CC1 (stereo not shown) [Example 1, 5-(4-chloro-phenyl)-N-(2-cyclopropyl-2-hydroxy-propyl)-6-(2,2,2-trifluoro-ethoxy)-2-trifluoromethyl-nicotinamide] | ~5.00 | 6.35 |
| O=C(N[C@H]1CCCC[C@H]1O)c1cc(-c2ccc(Cl)cc2)c(OCC(F)(F)F)nc1C(F)(F)F [Example 4C, 5-(4-chloro-phenyl)-N-((1S,2R)-2-hydroxy-cyclohexyl)-6-(2,2,2-trifluoro-ethoxy)-2-trifluoromethyl-nicotinamide] | < 5.00 | 5.60 |
| C[C@](O)(CNC(=O)c1cc(-c2ccc(Cl)c(Cl)c2)c(OCC(F)(F)F)nc1C(F)(F)F)C1CC1 [Example 2A, N-((R)-2-cyclopropyl-2-hydroxy-propyl)-5-(3,4-dichloro-phenyl)-6-(2,2,2-trifluoro-ethoxy)-2-trifluoromethyl-nicotinamide] | < 5.00 | 5.79 |
| CC(O)(CNC(=O)c1cc(-c2cccc(Cl)c2)c(OCC(F)(F)F)nc1C(F)(F)F)C1CC1 (stereo not shown) [Example 3, 5-(3-chloro-phenyl)-N-(2-cyclopropyl-2-hydroxy-propyl)-6-(2,2,2-trifluoro-ethoxy)-2-trifluoromethyl-nicotinamide] | < 5.00 | 6.32 |
| O=C(N[C@@H]1CCCC[C@H]1O)c1cc(-c2ccc(Cl)c(Cl)c2)c(OCc2ccccn2)nc1C(F)(F)F [Example 7, 5-(3,4-dichloro-phenyl)-N-((1R,2R)-2-hydroxy-cyclohexyl)-6-(pyridin-2-ylmethoxy)-2-trifluoromethyl-nicotinamide] | < 5.00 | 6.19 |
